From patent US12121522B2, “Methods of treating cancer with an mTOR inhibitor” (Revolution Medicines, Inc., priority 2022, dated 2024)
Values joined by “and” are separate entries in the source; they are usually repeats but may differ in a detail not shown here. Identical values can stand only once.

Columns and labels:
Mouse plasma exposure = format: in vivo; details: fu 0.001-0.004
[1] = Clinical plasma PK, study RMC-5552-001; format: in vivo, human
Source text: The plasma PK of RMC-5552 in subjects was characterized after single- and repeat-dose administration via IV infusion. […] Sparse PK samples were collected on other visit days as indicated in the clinical study protocol, including End of Infusion (EOI) samples on Cycle 1 Day 8 (C1D8), Cycle 2 Day 1 (C2D1), Cycle 3 Day 1 (C3D1), and Cycle 4 Day 1 ([…]) to approximate maximum concentration (Cmax). The plasma PK of RMC-5552 in subjects was characterized after single- and repeat dose administration via intravenous (IV) infusion. […] Sparse PK samples were collected on other visit days as indicated in the clinical study protocol, including EOI samples on C1D8, C2D1, C3D1, and […] to approximate Cmax. […] AUC0-last value was not calculated on C1D8, C2D1, C3D1, or […] due to limited PK time points (pre-dose and EOI).

[2] = tested on: advanced relapsed/refractory solid tumors; experiment: Clinical efficacy (RECIST v1.1), study RMC-5552-001; format: in vivo, human
Experimental: Refer to FIG. 7 for a waterfall plot of best response in subjects treated at majority dose of 6 mg or 8 mg IV weekly (one hour infusion).
Subjects were evaluated at doses of 6 mg and higher. […] One patient discontinued treatment due to clinical progression without post-baseline scans. Three patients experienced radiographic progressive disease (PD).

ctDNA (mean VAF) = experiment: ctDNA molecular response (Guardant Health algorithm); format: in vivo, human
Experimental: The mean±SEM of fractional change in mean VAF from C1D1 to C3D1 was determined by the Guardant Health Molecular Response Algorithm. […] Change in ctDNA is presented as mean±SEM of % change in mean VAF from C1D1 to C3D1. […] The results presented in FIGS. 8 and 9, supported by preclinical data, indicate that the dose range of 6 mg to 12 mg represents a “steep” dose-exposure-response relationship.

[3] = 13 efficacy-evaluable patients at ≥6 mg
[4] = 27 efficacy-evaluable subjects, majority doses 6 mg or 8 mg IV weekly
[5] = 67F NSCLC STK11, TSC2, KRAS L19F, 8 mg QW
[6] = endometrial PIK3CA, PTEN, TSC2, 8 mg QW
[7] = uterine CaSarc TSC1 LOF, 10 mg single dose, 6 mg QW

## CO[C@H]1C[C@@H]2CC[C@@H](C)[C@@](O)(O2)C(=O)C(=O)N2CCCC[C@H]2C(=O)O[C@H]([C@H](C)C[C@@H]2CC[C@@H](OC(=O)NCCOCCOCCOCCOCCOCCOCCOCCOCCC(=O)N3CCc4cc(Cn5nc(-c6ccc7oc(N)nc7c6)c6c(N)ncnc65)ccc4C3)[C@H](OC)C2)C[C@@H](O)[C@H](C)/C=C(\C)[C@@H](O)[C@@H](OC)C(=O)[C@H](C)C[C@H](C)/C=C/C=C/C=C/1C [RMC-5552]
Mouse plasma exposure; 1 mg/kg
  Unbound AUC0-last, mean mouse exposure: 0.021 to 0.084 µM·h
  Unbound Cmax, mean mouse exposure: 2 to 8 nM
Mouse plasma exposure; 3 mg/kg
  Unbound AUC0-last, mean mouse exposure: 0.053 to 0.21 µM·h
  Unbound Cmax, mean mouse exposure: 3.7 to 14.7 nM
[1]; 1.6 mg
  Mean Accumulation Ratio (AUC0-last on D15/D1): 2.4
[1]; 1.6 mg 1-h IV inf, C1D1
  Cmax: 21.6 nM
[1]; 1.6 mg, C1D1
  Mean AUC0-last: 0.0297 µM·h
  Mean Dose Normalized AUC0-last: 18.6 nM·h/mg
  Mean Unbound AUC0-last: 0.0017 µM·h
  Mean Unbound Cmax: 1.2 nM
[1]; 1.6 mg, C1D15
  Cmax: 35.3 nM
  Mean AUC0-last: 0.0555 µM·h
  Mean Dose Normalized AUC0-last: 34.7 nM·h/mg
  Mean Unbound AUC0-last: 0.0032 µM·h
  Mean Unbound Cmax: 2.0 nM
[1]; 1.6 mg, C2D1 (EOI)
  Cmax: 24.7 nM
  Mean Unbound Cmax: 1.4 nM
[1]; 3 mg
  Mean Accumulation Ratio (AUC0-last on D15/D1): 2.1
[1]; 3 mg 1-h IV inf, C1D1
  Cmax: 32 nM
[1]; 3 mg, C1D1
  Mean AUC0-last: 0.0439 µM·h
  Mean Dose Normalized AUC0-last: 14.6 nM·h/mg
  Mean Unbound AUC0-last: 0.0025 µM·h
  Mean Unbound Cmax: 1.8 nM
[1]; 3 mg, C1D15
  Cmax: 67.5 nM
  Mean AUC0-last: 0.0875 µM·h
  Mean Dose Normalized AUC0-last: 29.2 nM·h/mg
  Mean Unbound AUC0-last: 0.005 µM·h
  Mean Unbound Cmax: 3.8 nM
[1]; 3 mg, C2D1 (EOI)
  Cmax: 74.2 nM
  Mean Unbound Cmax: 4.2 nM
[1]; 6 mg
  Mean Accumulation Ratio (AUC0-last on D15/D1): 1.6
[1]; 6 mg 1-h IV inf, C1D1
  Cmax: 101 nM
[1]; 6 mg, C1D1
  Mean AUC0-last: 0.137 µM·h
  Mean Dose Normalized AUC0-last: 22.1 nM·h/mg
  Mean Unbound AUC0-last: 0.0078 µM·h
  Mean Unbound Cmax: 5.8 nM
  Mean t1/2: 8.1 h
  Unbound AUC0-last (Table 3): 0.0078 µM·h
  Unbound Cmax (Table 3): 5.6 nM
[1]; 6 mg, C1D8 (EOI)
  Cmax: 150 nM
  Mean Unbound Cmax: 8.5 nM
[1]; 6 mg, C1D15
  Cmax: 155 nM
  Mean AUC0-last: 0.219 µM·h
  Mean Dose Normalized AUC0-last: 36.6 nM·h/mg
  Mean Unbound AUC0-last: 0.0125 µM·h
  Mean Unbound Cmax: 8.9 nM
  Mean t1/2: 8.2 h
  Unbound AUC0-last (Table 3): 0.0121 µM·h
  Unbound Cmax (Table 3): 8.7 nM
[1]; 6 mg, C2D1 (EOI)
  Cmax: 159 nM
  Mean Unbound Cmax: 9.1 nM
[1]; 6 mg, C3D1 (EOI)
  Cmax: 187 nM
  Mean Unbound Cmax: 10.7 nM
[1]; 6 mg, C4D1 (EOI)
  Cmax: 220 nM
  Mean Unbound Cmax: 12.5 nM
[1]; 8 mg
  Mean Accumulation Ratio (AUC0-last on D15/D1): 2.6
[1]; 8 mg 1-h IV inf, C1D1
  Cmax: 152 nM
[1]; 8 mg, C1D1
  Mean AUC0-last: 0.219 µM·h
  Mean Dose Normalized AUC0-last: 27.4 nM·h/mg
  Mean Unbound AUC0-last: 0.0125 µM·h
  Mean Unbound Cmax: 8.6 nM
  Mean t1/2: 11.4 h
  Unbound AUC0-last (Table 3): 0.0117 µM·h
  Unbound Cmax (Table 3): 8.6 nM
[1]; 8 mg, C1D8 (EOI)
  Cmax: 242 nM
  Mean Unbound Cmax: 13.8 nM
[1]; 8 mg, C1D15
  Cmax: 340 nM
  Mean AUC0-last: 0.466 µM·h
  Mean Dose Normalized AUC0-last: 58.3 nM·h/mg
  Mean Unbound AUC0-last: 0.0266 µM·h
  Mean Unbound Cmax: 19.4 nM
  Mean t1/2: 10.6 h
  Unbound AUC0-last (Table 3): 0.0266 µM·h
  Unbound Cmax (Table 3): 20.1 nM
[1]; 8 mg, C2D1 (EOI)
  Cmax: 282 nM
  Mean Unbound Cmax: 16.1 nM
[1]; 8 mg, C3D1 (EOI)
  Cmax: 295 nM
  Mean Unbound Cmax: 16.8 nM
[1]; 8 mg, C4D1 (EOI)
  Cmax: 208 nM
  Mean Unbound Cmax: 11.8 nM
[1]; 10 mg 2-h IV inf, C1D1
  Cmax: 115 nM
[1]; 10 mg 2-h inf
  Mean Accumulation Ratio (AUC0-last on D15/D1): 1.7
[1]; 10 mg 2-h inf, C1D1
  Mean AUC0-last: 0.366 µM·h
  Mean Dose Normalized AUC0-last: 36.6 nM·h/mg
  Mean Unbound AUC0-last: 0.0209 µM·h
  Mean Unbound Cmax: 6.6 nM
  Mean t1/2: 13.5 h
[1]; 10 mg 2-h inf, C1D15
  Cmax: 181 nM
  Mean AUC0-last: 0.527 µM·h
  Mean Dose Normalized AUC0-last: 52.7 nM·h/mg
  Mean Unbound AUC0-last: 0.03 µM·h
  Mean Unbound Cmax: 10.3 nM
  Mean t1/2: 4.2 h
[1]; 10 mg 2-h inf, C2D1
  Cmax: 290 nM
  Mean Unbound Cmax: 16.5 nM
[1]; 10 mg, C1D1, N=2
  Unbound AUC0-last (Table 3): 0.0142 µM·h
  Unbound Cmax (Table 3): 11 nM
[1]; 12 mg 1-h IV inf, C1D1
  Cmax: 396 nM
[1]; 12 mg, C1D1
  Mean AUC0-last: 0.49 µM·h
  Mean Dose Normalized AUC0-last: 40.9 nM·h/mg
  Mean Unbound AUC0-last: 0.028 µM·h
  Mean Unbound Cmax: 22.6 nM
  Mean t1/2: 8.3 h
[1]; 12 mg, C1D1, N=2
  Unbound AUC0-last (Table 3): 0.0282 µM·h
  Unbound Cmax (Table 3): 22.6 nM
[1]; weekly repeat dosing, 1.6 to 8 mg
  exposure (Cmax and AUC0-last) on C1D15 relative to C1D1: about 2 fold
[2]; [3]
  best response of stable disease (SD), subjects: 8
  confirmed partial response (PR), subjects: 1
  discontinued due to clinical progression without post-baseline scans, patients: One
  radiographic progressive disease (PD), patients: Three
[2]; [4]
  Disease Control Rate (DCR): 74.1%
  subjects with confirmed partial response: one
  subjects with stable disease as best response: 19
[2]; [5]
  RECIST reduction: 4% reduction
[2]; 76F NSCLC BRAF fusion, 10 mg single dose, 6 mg QW
  RECIST reduction: 22%
[2]; H&N (salivary gland) cancer, PTEN mutation, 12 mg single dose then 6 mg QW
  reduction in sum of target lesions (RECIST), subject with confirmed PR: 77.6% and 77%
[2]; cancer with PTEN mutation
  subjects with Partial Response (PR): 1
[2]; [6]
  CA125, nadir: to nadir of 254; 9+ months
  CA125, peak: CA125 from peak of 1465
  RECIST reduction: 7% reduction
[2]; head and neck cancer, PTEN mutation
  subjects with Partial Response (PR): 1
[2]; ovarian CA TSC1 LOF, 6 mg QW
  RECIST increase (mixed): 19% increase
  reduction in CA125: 72% reduction in CA125
  reduction in FDG avidity by PET/CT: Strong: 50% reduction in
[2]; salivary gland cancer
  reduction in tumor size, 1 subject: 63%
[2]; [7]
  RECIST reduction: 4.4%
  reduction in CA125: Strong: 37% reduction in
ctDNA (mean VAF); [5]
  decrease in VAF: reduction in lesion; 31%
ctDNA (mean VAF); [6]
  MR (molecular response): SD; MR 64%
ctDNA (mean VAF); of 6 subjects with SD as best response and a pathogenic mTOR pathway variant
  subjects with molecular response: 3
ctDNA (mean VAF); one subject on 12 mg initial dose
  molecular response: effective molecular complete response
ctDNA (mean VAF); [7]
  MR (molecular response): 91%
